# According to US20070032477A1, “Pteridine derivatives useful for making pharmaceutical compositions” (priority 2003, published 2007):
# Columns and labels:
# [1] = tested on: mixed lymphocyte reaction (PBMC with allogeneic PBMC or Eppstein-Barr Virus-transformed human B cells as stimulator cells); assay: Mixed lymphocyte reaction (MLR) assay; format: cell-based; conditions: lowest concentration giving 50% suppression of the MLR; [3H]-thymidine
# [2] = tested on: production of TNF-α by PBMC in response to stimulation by LPS; assay: TNF-α assay; format: cell-based, human; conditions: LPS 1 μg/ml, 72 hours, sandwich ELISA
# Procedure, shortened: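 Cells were LPS-stimulated (1 μg/ml final) peripheral blood mononuclear cells at 10^6/ml, exposed 72 h at 37 °C to 0.1, 1 or 10 μM test compound.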
# [3] = tested on: production of IL-1 β by PBMC in response to stimulation by LPS; assay: IL-1 β assay; format: cell-based, human; conditions: LPS 1 μg/ml, 72 hours, sandwich ELISA
# Procedure, shortened: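 IL-1β release was measured by sandwich ELISA (450 nm, standard curve, pg/ml) and expressed as % suppression. Density-gradient-isolated PBMC at 10^6 cells/ml received LPS at 1 μg/ml plus test compound at 0.1 μM, 1 μM or 10 μM, incubated 72 h at 37 °C.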
# [4] = tested on: LPS-induced shock in C3H mice; assay: Model of protection against septic shock (LPS); format: in vivo; conditions: 100 μg LPS i.p., 20 mg/kg/day i.p. at time of injection and 24 hours later
# Description: As a control group, 4 sham treated (saline injection) C3H mice being injected intraperitoneously with 100 μg lipopolysaccharide (hereinafter LPS) per mouse, all died within 1 to 3 days after injection.
# [5] = tested on: TNF-α induced shock in C57BL/6 male mice; assay: Protection against a lethal dose of TNF-α; format: in vivo
# Description: A model of TNF-α induced shock in C57BL/6 male mice was performed as follows. Five animals from the control group received an intravenous administration of a lethal dose of TNF-α (10 μg) in the tail. Ten animals from the test group received three intraperitoneous injections of the pteridine derivative of example 17 (20 mg/kg/day) respectively 48 hours, 24 hours and immediately before an intravenous injection of TNF-α (10 μg).
# Furthermore, all five mice from the control group died within 40 hours, the survival rate (80%) of mice that received the pteridine derivative of example 17 in addition to the TNF-α dose (10 μg) was quite substantial.
Compound,IC50 [1],IC50 [2],IC50 [3],protection from acute shock related mortality [4],"survival rate ([5]; TNF-α 10 μg i.v., 20 mg/kg/day i.p. three injections, within 40 hours)","body temperature ([5]; followed for 40 hours, 20 mg/kg/day i.p. 48 h, 24 h and immediately before TNF-α 10 μg i.v.)"
"COc1ccc(-c2cnc3nc(N)nc(N4CCN(C(=O)COc5ccccc5)CC4)c3n2)cc1OC [Example 17, 2-amino-4-[(N-phenoxyacetyl)-piperazin-1-yl]-6-(3,4-dimethoxy-phenyl)pteridine]",3.8 nM,80 nM,2800 nM,all mice were protected from acute shock related mortality,80%,body temperature of control mice dropped significantly when compared to mice receiving the test compound
"COc1ccc(-c2cnc3nc(N)nc(N4CCN(c5ccc(C)cc5)CC4)c3n2)cc1OC [Example 176, 2-amino-6-(3,4-dimethoxyphenyl)-4-((4-methylphenyl)-piperazin-1-yl)pteridine]",300 nM,< 10 nM,4900 nM,,,
